Measured values as given in patent US6737237B1, “Antimicrobial agents, diagnostic reagents, and vaccines based on unique Apicomplexan parasite components” (Apicomplexan Therapeutics, LLC, priority 1999, dated 2004).
In brackets after ≈: the same amount, converted by molar mass.

Legend:
Toxoplasma gondii ACC = test: ACC activity in T. gondii tachyzoite protein extracts (carboxyl incorporation from bicarbonate); format: biochemical
Source text: In plants, genes encoding enzymes for fatty acid synthesis, including various subunits of ACC except one, are present in the nuclear genome and their protein products are imported and function in plastids. ACC, catalyzing the first committed step of de novo fatty acid biosynthesis, is a known selective target of aryloxyphenoxypropionate (“fops”) and cyclohexanedione (“dims”) herbicides in sensitive species. The molecular mechanism of inhibition/resistance of the enzyme is not know but there is a strong correlation between the enzyme structure and its origin. The high molecular weight multi-domain ACC that is localized in plastids of grasses is extremely sensitive to these herbicides. All of the multi-subunit chloroplast enzymes of dicot plants and bacteria as well as other multi-domain cytosolic ACCs, such as those from man, chicken, rat and yeast, are resistant. ACC activity is conveniently measured in vitro by the incorporation of the carboxyl group from bicarbonate into an acid-stable form using crude protein extracts after Sephadex G50 filtration. […] One band at 240 kDa corresponded to the expected size for a subunit of ACC, while another at 130 kDA corresponded to the size expected for pyruvate carboxylase (PC).
(§1) Structures of fops and dims were tested on the ACC-containing protein extracts of T. gondii described above. Three of the four fops were striking inhibitors of the activity, while none of the dims had any effect against the enzyme. […] Effects of the herbicides on uninfected fibroblasts and on T. gondii growth and replication were tested as previously described by Roberts et al., 1998 using incorporation of radiolabeled thymidine by growing fibroblasts to assess toxicity and incorporation of radiolabeled uracil to measure T. gondii growth and persistence. Anti-parasite activity and toxicity for four fops and one representative dim were determined. Pyrimethamine and sulfadiazine, antimicrobial agents which are known inhibitors of folate synthesis, were included as positive control. […] Consistent with the data for ACC activity in vitro, the inhibitory activity of the fops and the dim on T. gondii growth in fibroblasts was in the same concentration range. […] With regard to toxicity, fops are mildly toxic at the highest concentration, 400 μM. In separate experiments, the effect of Clodinafop on T. gondii was assessed by light microscopy. […] In this experiment, cultures were incubated for 2 more days without the inhibitor.

[1] = tested on: T. gondii tachyzoites (RH strain); test: microbe, parasite or virus in culture; format: cell-based, Toxoplasma gondii
Description: The improvements are based on microscopic visual imspection of infected and inhibitor treated cultures, and on quantitation of nucleic acid synthesis of the parasite by measure intake of ^3H uracil onto the parasite's nucleic acid. Uracil is not utilized by mammalian cells. […] Only the RH strain tachyzoites, cultured for up to 72 hours, had been used in previously reported assays. The use of Me49, Ptg, and R5 mutant are unique aspects of the methods used in these assays in this invention.
(§2) In these assays toxicity of a candidate inhibitor was assessed by its ability to prevent growth of human foreskin fibroblasts (HFF) after 4 days and after 8 days as measured by tritiated thymidine uptake and microscopic evaluation. Confluent monolayers of HFF were infected with tachyzoites and bradyzoites. Inhibitor was added one hour later. Non-toxic doses were used in parasite growth inhibition assays. Parasite growth was measured by ability to incorporate tritiated uracil during the last 18 hours of culture.
(§3) First the toxicity of gabaculine was assessed by its ability to prevent growth of human foreskin fibroblasts (HFF) as measured by ^3H-thymidine uptake and microscopic evaluation. Non-toxic doses were used in parasite growth inhibition assays. in vitro parasite growth inhibition assays included confluent monolayers of HFF infected with tachyzoites (RH) or mutant Me49 (R5). Gabaculine was added 1 hour later. Parasite growth was measured by the ability to incorporate ^3H-uracil during the last 18 hours of culture. In addition, parasite growth was evaluated microscopically in Giemsa stained slides.
ii) in vitro Parasite Growth Inhibition Assays: Confluent monolayers of HFF cells, grown in 96-well plates are infected with T. gondii tachyzoites of the RH strain and serial dilutions of anti-microbial compound are applied 1 hour later. T. gondii growth is assessed in these cultures by their ability to incorporate tritiated uracil (2.5 μCi/well) added during the last 18 hours of culture. After harvesting cells with an automatic cell harvester, uracil incorporation is measured by liquid scintillation.

T. gondii [2] = test: Assay for synergy in vitro: inhibitors alone and together on replication of T. gondii (uracil CPM); format: cell-based, Toxoplasma gondii; conditions: for CPM for B: Drug B alone: Sulfadiazine (6.25 μg/ml), Pyrimethamine (0.025 μg/ml), SHAM (0.78 μg/ml)
Source text: The effect of enzymes in pathways “in parallel” are additive and in “series” are more than the additive effect of either inhibitor used alone (i.e., synergistic). […] The shikimate pathway produces 3,4-dihdroxybenzoate which is converted to ubiquinone, an essential component of the electron transport chain. Thus, NPMG, an inhibitor of EPSP-synthase, indirectly affects ubiquinone production and, thus, the electron transport chain. Similarly, heme is required for production of cytochromes in the electron transport chain. Thus, inhibition of heme production by gabaculine also indirectly affects the conventional electron transport chain. […] T. gondii growth is measured by their ability to incorporate tritiated uracil and is expressed as counts/minute (CPM).
g) Assays for Synergy in vitro: This is an assy in which ≦50% inhibitor concentrations of two antimicrobial agents are added alone and together to determine whether there is an additive, synergistic or inhibitory interaction. All other aspects of this assay are as described herein.

T. gondii [3] = test: Effect of inhibitors on T. gondii infection in vivo (manifestations, parasitemia, brain cysts); parameters: species or system mice; conditions: mouse
Description: Cyst numbers present in a suspension of brain are enumerated, or cyst numbers in formalin fixed paraffin embedded sections are quantitated.
c) Persistance of Cysts: C3H/He mice are infected orally with 100 cysts of T. gondii (Me49 strain). Inhibitors are administered to groups of mice from day 30 post infection to day 50 post infection. Cyst burden, mortality and pathology are compared in treated and control mice on days 30 and 50 post infection and in mice that receive antibody to gamma interferon which leads to recrudescence of disease.
A method to measure the amount of parasitemia in mouse peripheral blood has been developed. Briefly, the target for PCR amplification is the 35 fold repetitive B1 gene of T. gondii and the amplification was performed using primers previously reported. […] Competitive PCR was performed by spiking individual reactions (containing equal amounts of genomic DNA) with a dilution of the internal standard. Since this internal control contains the same primer template sequences, it competes with the B1 gene of T. gondii for primer binding and amplification. The sensitivity of the PCR reaction in each sample can be monitored. Following competitive PCR, the PCR products are distinguished by size and the amount of products generated by the target and internal standard can be compared on a gel. […]

C. parvum = C. parvum infection of MDBKF5D2 cell monolayers, immunofluorescence assay at 48 hours; format: cell-based, Cryptosporidium parvum
Description: C. parvum oocysts at 50,000/well were incubated at 37° C. (8% CO2) on confluent MDBKF5D2 cell monolayers in 96 well microtiter plates with the following concentrations of each drug. […] The level of infection of each well was determined and analyzed by an immunofluorescence assay at 48 hours using an antibody to C. parvum sporozoites made in rabbits at a concentration of 0.1%. Fluorescein-conjugated goat anti-rabbit antibody was used at a concentration of 1%.
(8% carbon dioxide) on confluent MDBKF5D2 cell monolayers in 96 well microtiter plates. The level of infection of each well was determined and analyzed by an immunofluorescence assay at 48 hours using as an antibody C. parvum sporozoite rabbit anti-serum (0.1%), and using fluorescein-conjugated goat anti-rabbit antibody (1%). Data are expressed as mean parasite count/field when 16 fields counted at 10× magnification “s.d. of the mean” (FIG. 6).

[4] = tested on: D6 clone of Plasmodium falciparum; test: P. falciparum in vitro assay (Milhous et al., 1985), D6 clone; format: cell-based; conditions: D6, 66 h
[5] = tested on: human foreskin fibroblasts (HFF); test: Toxicity: growth of fibroblasts, tritiated thymidine uptake and microscopic evaluation; format: cell-based; conditions: herbicide experiments
Description: as §2, §3
d) Inhibitors: Inhibitor compounds are tested over a range of concentrations for toxicity against mammalian cells by assessing their ability to prevent cell growth as measured by tritiated thymidine uptake and inspection of the monolayer using microscopic evaluation. […]

Toxoplasma tachyzoites = test: Light microscopy of T. gondii infected fibroblasts treated with Clodinafop; format: cell-based, Toxoplasma gondii; conditions: for parasites in infected fibroblasts: 4-day treatment, one change of medium and inhibitor after 2 days, then 2 more days without inhibitor; for number of T. gondii cells in infected fibroblasts: two days
Description: as §1

SMILES: CC(Oc1ccc(Oc2cnc3cc(Cl)ccc3n2)cc1)C(=O)O (centres unmarked) [Quizalofop, ()-2-[4-[(6-chloro-2-quinoxalinyl)oxy]phenoxy]propanoic acid]
- inhibition of ACC activity (Toxoplasma gondii ACC; 20 μM): 50%
- inhibition of ACC activity (Toxoplasma gondii ACC; 100 μM): 90%

SMILES: Nc1ccc(S(=O)(=O)Nc2ncccn2)cc1 [Sulfadiazine]
- growth of T. gondii reduced [1]: about 60%
- CPM for B (T. gondii [2]): 25026 ± 4365 CPM
- manifestations of infection in vivo (T. gondii [3]): reduced manifestations of infection

SMILES: Oc1cccc2cccnc12 [8-OH-quinoline, 8-hydroxyquinoline]
- activity against T. gondii (tachyzoites) [1]: effective
- approximate 95% C1 count (mean parasite count per field) (C. parvum; 8-OH-quinoline 0.1 μg/ml, media alone ~1800): ~1300
- approximate 95% C1 count (mean parasite count per field) (C. parvum; 8-OH-quinoline 1 μg/ml, media alone ~1800): ~1100
- approximate 95% C1 count (mean parasite count per field) (C. parvum; 8-OH-quinoline 10 μg/ml, media alone ~1800): ~900
- approximate 95% C1 count (mean parasite count per field) (C. parvum; 8-OH-quinoline 100 μg/ml, media alone ~1800): ~300
- IC50 [4]: 1.2 µg/mL (≈ 8.29 µM)
- IC90 [4]: 1.88 µg/mL (≈ 13 µM)

SMILES: CC(Oc1ccc(Oc2ncc(C(F)(F)F)cc2Cl)cc1)C(=O)O (centres unmarked) [Haloxyfop]
- inhibition of ACC activity (Toxoplasma gondii ACC; 20 μM): 50%
- inhibition of ACC activity (Toxoplasma gondii ACC; 100 μM): 90%

SMILES: CC(Oc1ccc(Oc2ccc(C(F)(F)F)cn2)cc1)C(=O)O (centres unmarked) [Fluazifop]
- effect on T. gondii ACC activity in crude extracts (Toxoplasma gondii ACC): relatively low inhibitory activity

SMILES: CCc1nc(N)nc(N)c1-c1ccc(Cl)cc1 [Pyrimethamine]
- CPM for B (T. gondii [2]): 69217 ± 3253 CPM

SMILES: C[C@@H](Oc1ccc(Oc2ncc(Cl)cc2F)cc1)C(=O)O [Clodinafop]
- inhibition of growth of T. gondii in human fibroblasts (uracil incorporation) ([1]; 10 μM): 70%
- toxicity for fibroblasts (thymidine incorporation) [5]: not toxic
- inhibition of ACC activity (Toxoplasma gondii ACC; 20 μM): 50%
- inhibition of ACC activity (Toxoplasma gondii ACC; 100 μM): 90%
- parasites in infected fibroblasts (Toxoplasma tachyzoites; 10 μM): No parasite cells were found
- parasites in infected fibroblasts (Toxoplasma tachyzoites; 10 μM, listed as clodinafop): complete eradication
- number of T. gondii cells in infected fibroblasts (Toxoplasma tachyzoites; 10 μM): substantial reduction
- number of T. gondii cells in infected fibroblasts (Toxoplasma tachyzoites; 100 μM): almost complete removal

SMILES: NC[C@@H]1O[C@H](O[C@H]2[C@@H](O)[C@H](O[C@@H]3[C@@H](O)[C@H](N)C[C@H](N)[C@H]3O[C@H]3O[C@H](CO)[C@@H](O)[C@H](O)[C@H]3N)O[C@@H]2CO)[C@H](N)[C@@H](O)[C@@H]1O [paromomycin]
- approximate 95% C1 count (mean parasite count per field) (C. parvum; PRM without ethanol, media alone ~1800): ~200
- approximate 95% C1 count (mean parasite count per field) (C. parvum; paromomycin (PRM) and ethanol, media and ethanol ~1200): ~100

SMILES: O=C(NO)c1ccccc1O [SHAM, Salicylhydroxamic acid]
- CPM restricted (tritiated uracil incorporation) ([1]; SHAM 0.16 μg/ml (0.19), 4 day, medium around 54,000 CPM): around 50%
- counts (tritiated uracil incorporation) ([1]; SHAM 0.78 μg/ml, 4 day, medium around 54,000, no RH around 1,000 CPM): about 8,000 CPM
- approximate 95% C1 count (mean parasite count per field) (C. parvum; SHAM 0.1 μg/ml, 0.2% ETOH, media and ethanol ~1200): ~1200
- approximate 95% C1 count (mean parasite count per field) (C. parvum; SHAM 1 μg/ml, 0.2% ETOH, media and ethanol ~1200): ~1100
- approximate 95% C1 count (mean parasite count per field) (C. parvum; SHAM 10 μg/ml, 0.2% ETOH, media and ethanol ~1200): ~1100
- approximate 95% C1 count (mean parasite count per field) (C. parvum; SHAM 100 μg/ml, 0.2% ETOH, media and ethanol ~1200): ~400
- CPM for B (T. gondii [2]): 42993 ± 1098 CPM
- parasitemia and number of brain cysts (T. gondii [3]): affects parasitemia and number of brain cysts

SMILES: CC1(C)N=C(N)N=C(N)N1c1ccc(Cl)cc1 [Cycloguanil]
- combined effect of two inhibitors in vitro (additive or synergistic) (T. gondii [2]; T. gondii in culture): synergistic with NPMG
